Measured values taken from patent US20080176261A1, “Colorimetric Substrate and Methods for Detecting Poly(ADP-ribose) Polymerase Activity including PARP Enzymes PARP-1, VPARP, and Tankyrase-1” (THE BOARD OF TRUSTEES OF THE UNIVERSITY OF ILLINOIS, priority 2007, published 2008).
Where two headings read alike, the source gives them in different places. Each block holds one molecule with its values, some of them ahead of it.

Tests used:
bovine serum albumin = bovine serum albumin (Bos taurus, UniProt P02769); assay: Control experiment with BSA (non-specific substrate cleavage); format: biochemical; conditions: 20 μM BSA, monitored 2 hours
Sequence of bovine serum albumin (P02769 25-607): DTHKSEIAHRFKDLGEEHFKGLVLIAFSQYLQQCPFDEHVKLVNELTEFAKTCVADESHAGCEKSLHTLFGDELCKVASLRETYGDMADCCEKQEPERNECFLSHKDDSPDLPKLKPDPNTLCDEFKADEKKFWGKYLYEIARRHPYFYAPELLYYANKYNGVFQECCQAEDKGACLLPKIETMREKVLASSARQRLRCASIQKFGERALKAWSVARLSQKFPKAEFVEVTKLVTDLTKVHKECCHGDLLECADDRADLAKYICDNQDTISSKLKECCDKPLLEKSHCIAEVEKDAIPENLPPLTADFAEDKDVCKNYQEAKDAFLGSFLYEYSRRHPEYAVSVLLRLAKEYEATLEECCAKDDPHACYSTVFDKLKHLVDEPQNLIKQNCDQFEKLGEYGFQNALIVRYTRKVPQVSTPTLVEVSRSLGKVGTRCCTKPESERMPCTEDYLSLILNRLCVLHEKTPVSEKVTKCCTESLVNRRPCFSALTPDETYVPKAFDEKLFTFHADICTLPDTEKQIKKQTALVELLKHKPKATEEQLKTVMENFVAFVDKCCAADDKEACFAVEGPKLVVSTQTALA
Experimental: While exact kinetic parameters for PARP-1 can vary with the assay used, for PARP-1 the KM value with ADP-ribose-pNP is consistent with that of the natural β-NAD^+ substrate, while the Vmax is approximately 100 fold lower with the calorimetric substrate (see Table 1). […] To our knowledge, no data is available on the kinetic parameters of VPARP with β-NAD^+.
Control experiment with BSA. To determine that substrate cleavage is specific to the PARP family of enzymes, 16 μL of BSA was added to 81.5 μL of PARP assay buffer in a 96 well plate so that the final concentration was 20 μM in protein. The experiment was performed in triplicate along with controls that contained PARP assay buffer only. To both the wells containing only buffer or buffer and BSA, 2.5 μL of a 10 mM stock of the substrate was added to start the reaction. The plate was monitored at 405 nm for 2 hours.

PARP-1 [1] = biological target: T1, PARP-1 (Homo sapiens, UniProt P09874); assay: Continuous colorimetric PARP kinetic assay with ADP-ribose-pNP, PARP-1; format: biochemical; set-up: purchased Trevigen
T1 sequence (P09874 whole entry, the tested form may be a part): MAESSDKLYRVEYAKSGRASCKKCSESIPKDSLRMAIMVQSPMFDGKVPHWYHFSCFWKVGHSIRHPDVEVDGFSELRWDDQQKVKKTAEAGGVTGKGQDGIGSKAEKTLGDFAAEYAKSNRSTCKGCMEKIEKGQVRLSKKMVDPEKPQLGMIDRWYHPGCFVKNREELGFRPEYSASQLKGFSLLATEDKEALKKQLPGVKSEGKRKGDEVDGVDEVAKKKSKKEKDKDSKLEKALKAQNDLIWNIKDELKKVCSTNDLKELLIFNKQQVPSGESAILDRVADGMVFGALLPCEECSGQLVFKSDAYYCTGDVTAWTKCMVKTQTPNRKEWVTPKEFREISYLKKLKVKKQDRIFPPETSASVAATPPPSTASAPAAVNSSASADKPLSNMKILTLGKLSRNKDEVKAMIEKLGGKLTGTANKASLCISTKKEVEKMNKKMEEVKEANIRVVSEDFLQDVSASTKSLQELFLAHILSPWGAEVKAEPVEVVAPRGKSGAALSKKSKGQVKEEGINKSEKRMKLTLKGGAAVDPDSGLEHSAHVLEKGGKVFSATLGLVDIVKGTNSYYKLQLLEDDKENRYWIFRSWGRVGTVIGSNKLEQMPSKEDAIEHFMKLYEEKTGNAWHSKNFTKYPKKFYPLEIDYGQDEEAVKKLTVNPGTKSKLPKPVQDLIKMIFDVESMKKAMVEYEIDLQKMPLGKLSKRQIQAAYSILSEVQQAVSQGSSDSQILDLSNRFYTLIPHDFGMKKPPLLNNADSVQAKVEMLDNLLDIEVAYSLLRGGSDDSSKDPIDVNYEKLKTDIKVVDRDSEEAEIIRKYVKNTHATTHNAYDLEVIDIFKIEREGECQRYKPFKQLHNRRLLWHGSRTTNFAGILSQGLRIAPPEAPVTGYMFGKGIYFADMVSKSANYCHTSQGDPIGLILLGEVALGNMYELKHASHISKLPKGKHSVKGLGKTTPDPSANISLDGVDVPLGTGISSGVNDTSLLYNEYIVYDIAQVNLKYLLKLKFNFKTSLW
Experimental: (§1) With the calorimetric substrate ADP-ribose-pNP in hand, a continuous calorimetric assay for PARP activity was developed and the kinetic parameters for three PARP isozymes were determined. In a 96-well plate, a range of concentrations of ADP-ribose-pNP in PARP assay buffer were incubated with either PARP-1 (DNase digested DNA was added to activate PARP-1), tankyrase-1 (refers to “active domain,” see Supporting Information), or VPARP (also refers to the “active domain”), and the optical density at 405 nm was measured every 60 seconds over a 2 hour time period. Change in absorbance was assessed in triplicate, and blanks containing 0 to 700 μM ADP-ribose-pNP in PARP assay buffer were also measured over the same time period. The absorbance of a range of p-nitrophenol concentrations was determined at 405 nm, and the slope of this calibration curve (see Supporting Information) was used to convert the absorbencies to moles of product generated; in this way the kinetic parameters for PARP-1, tankyrase-1, and VPARP were calculated (see Table 1 and FIG. 2).
Preparation of damaged DNA for PARP-1. […]
Kinetics of PARP-1. […] The plate was then read on a SpectraMax plus UV/Vis plate reader (Molecular Devices), at 405 nm for 2 hours, reading once every minute with mixing between reads.
(§2) Data analysis. […] Graphs were analyzed using Table Curve 2D.

VPARP = biological target: T2, VPARP (Homo sapiens, UniProt Q9UKK3); assay: Continuous colorimetric PARP kinetic assay with ADP-ribose-pNP, VPARP active domain; format: biochemical; conditions: substrate ADP-ribose-pNP, 405 nm
T2 construct: The plasmid with the catalytic domain of VPARP, pET28b-p193cat; made in house; host or cells: E. coli Rosetta
T2 sequence (Q9UKK3 369-573 limits assumed): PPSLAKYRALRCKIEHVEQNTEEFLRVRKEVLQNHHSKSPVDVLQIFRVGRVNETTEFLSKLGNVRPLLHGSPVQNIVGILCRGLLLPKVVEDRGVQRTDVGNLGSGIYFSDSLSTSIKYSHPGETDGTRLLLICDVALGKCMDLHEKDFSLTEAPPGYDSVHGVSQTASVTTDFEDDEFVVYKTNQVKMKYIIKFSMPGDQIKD
Experimental: (§3) With the calorimetric substrate ADP-ribose-pNP in hand, a continuous calorimetric assay for PARP activity was developed and the kinetic parameters for three PARP isozymes were determined. In a 96-well plate, a range of concentrations of ADP-ribose-pNP in PARP assay buffer were incubated with either PARP-1 (DNase digested DNA was added to activate PARP-1), tankyrase-1 (refers to “active domain,” see Supporting Information), or VPARP (also refers to the “active domain”), and the optical density at 405 nm was measured every 60 seconds over a 2 hour time period. Change in absorbance was assessed in triplicate, and blanks containing 0 to 700 μM ADP-ribose-pNP in PARP assay buffer were also measured over the same time period. The absorbance of a range of p-nitrophenol concentrations was determined at 405 nm, and the slope of this calibration curve (see Supporting Information) was used to convert the absorbencies to moles of product generated; in this way the kinetic parameters for PARP-1, tankyrase-1, and VPARP were calculated (see Table 1 and FIG. 2). […]
(§4) The plate was divided in half with protein added to half the wells and the other half serving as blanks containing only PARP assay buffer and substrate. […] The plate was then read on a SpectraMax plus 384 UV/Vis plate reader (Molecular Devices), at 405 nm for 2 hours with observations performed once every minute. […]

tankyrase-1 [2] = biological target: T3, tankyrase-1 (Homo sapiens, UniProt O95271); assay: Continuous colorimetric PARP kinetic assay with ADP-ribose-pNP, tankyrase-1 active domain; format: biochemical
T3 construct: The SAM and PARP domain of tankyrase was subcloned into pGEX-5X-1; made in house; host or cells: E. coli Rosetta
T3 sequence (O95271 1030-1327): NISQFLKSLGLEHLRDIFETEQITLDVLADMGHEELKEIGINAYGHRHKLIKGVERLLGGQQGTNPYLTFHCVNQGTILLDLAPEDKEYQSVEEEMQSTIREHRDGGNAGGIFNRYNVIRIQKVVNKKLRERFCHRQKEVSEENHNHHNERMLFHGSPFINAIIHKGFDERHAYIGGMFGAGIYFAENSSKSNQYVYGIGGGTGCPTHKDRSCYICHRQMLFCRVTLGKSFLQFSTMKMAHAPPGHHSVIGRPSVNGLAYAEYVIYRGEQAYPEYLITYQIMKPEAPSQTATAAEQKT
Experimental: as §1
Kinetics of VPARP and Tankyrase-1. The ADP-ribose-pNP colorimetric substrate was diluted from a 10 mM stock in PARP assay buffer to 1142.9 μM. From this stock, dilutions into PARP assay buffer were made in 15×1.7 mL tubes so that the volume was 490 μL. This was enough to perform the experiment in triplicate, with additional wells (no protein) to serve as blanks for each substrate concentration. The concentration of substrate in each tube was made such that 70 μL from each tube could be added to the wells of a 96 well plate. When each well was brought to the final volume of 100 μL, the desired final concentration was reached. See FIG. 2B and FIG. 5B for tank-ad and VPARP substrate concentrations, respectively. Concentrations ranged from 0 to 700 μM with a finer distribution at lower substrate concentrations.
The plate was divided in half with protein added to half the wells and the other half serving as blanks containing only PARP assay buffer and substrate. After adding 70 μL of substrate from each tube to 3 wells on the protein side or 3 wells of the blank side, 30 μL of PARP assay buffer was added to all the wells of the blank side. Next, 30 μL of the enzyme was added to each of the wells on the protein half of the plate to initiate the reaction, with a final concentration of tankyrase per well of 21.8 μM and the final concentration of VPARP per well of 19.8 μM. The plate was then read on a SpectraMax plus 384 UV/Vis plate reader (Molecular Devices), at 405 nm for 2 hours with observations performed once every minute. Mixing was conducted between observations.
as §2

tankyrase-1 [3] = biological target: T4, tankyrase-1 (Homo sapiens, UniProt O95271); conditions: tankyrase-1 literature, β-NAD+ as substrate; cited from earlier work
T4 sequence (O95271 1-1327): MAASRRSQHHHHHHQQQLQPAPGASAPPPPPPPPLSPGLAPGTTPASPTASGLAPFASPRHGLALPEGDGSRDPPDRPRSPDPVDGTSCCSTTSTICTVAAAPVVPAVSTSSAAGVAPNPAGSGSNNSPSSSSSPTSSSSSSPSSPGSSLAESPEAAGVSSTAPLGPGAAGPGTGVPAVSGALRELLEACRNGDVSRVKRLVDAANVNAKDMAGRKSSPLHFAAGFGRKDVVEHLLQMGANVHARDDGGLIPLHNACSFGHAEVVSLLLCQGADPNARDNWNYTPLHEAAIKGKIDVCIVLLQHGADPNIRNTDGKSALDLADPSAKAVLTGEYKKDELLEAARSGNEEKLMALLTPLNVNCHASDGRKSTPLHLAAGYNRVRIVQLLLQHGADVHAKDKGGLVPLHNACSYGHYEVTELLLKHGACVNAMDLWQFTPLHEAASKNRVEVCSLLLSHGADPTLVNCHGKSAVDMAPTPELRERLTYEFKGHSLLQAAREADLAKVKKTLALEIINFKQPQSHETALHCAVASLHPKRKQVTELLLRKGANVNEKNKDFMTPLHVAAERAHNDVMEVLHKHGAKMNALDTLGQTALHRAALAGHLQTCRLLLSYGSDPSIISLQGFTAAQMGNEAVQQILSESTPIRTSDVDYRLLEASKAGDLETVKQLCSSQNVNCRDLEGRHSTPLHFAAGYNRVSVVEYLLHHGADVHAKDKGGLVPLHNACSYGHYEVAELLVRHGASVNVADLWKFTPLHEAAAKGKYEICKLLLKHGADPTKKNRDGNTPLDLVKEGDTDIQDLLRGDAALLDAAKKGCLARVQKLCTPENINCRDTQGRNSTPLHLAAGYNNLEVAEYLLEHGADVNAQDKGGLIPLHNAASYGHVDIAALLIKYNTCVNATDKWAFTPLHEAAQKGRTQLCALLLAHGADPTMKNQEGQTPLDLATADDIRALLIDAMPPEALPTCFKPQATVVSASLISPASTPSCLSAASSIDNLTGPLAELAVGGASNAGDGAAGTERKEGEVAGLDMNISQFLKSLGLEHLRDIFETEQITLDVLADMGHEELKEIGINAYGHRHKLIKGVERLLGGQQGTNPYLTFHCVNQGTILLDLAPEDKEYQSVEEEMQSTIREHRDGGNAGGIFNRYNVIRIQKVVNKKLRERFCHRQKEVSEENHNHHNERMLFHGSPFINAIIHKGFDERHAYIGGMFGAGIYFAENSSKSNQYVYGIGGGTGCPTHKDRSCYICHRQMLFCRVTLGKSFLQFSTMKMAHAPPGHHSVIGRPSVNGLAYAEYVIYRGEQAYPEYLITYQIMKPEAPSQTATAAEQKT

PARP-1 [4] = biological target: T1, PARP-1; set-up: purchased Trevigen; conditions: PARP-1 literature, natural β-NAD+ substrate; cited from earlier work
[5] = tested on: T5, Nc1ncnc2c1ncn2[C@@H]1O[C@H](COP(=O)(O)OP(=O)(O)OC[C@H]2O[C@@H](Oc3ccc([N+](=O)[O-])cc3)C(O)C2O)C(O)C1O; assay: Continuous colorimetric PARP kinetic assay with ADP-ribose-pNP, PARP-1; format: biochemical; conditions: other: PARP-1 activated with DNase digested DNA; substrate ADP-ribose-pNP; 405 nm; pH 8.0
T5 construct: purchased Trevigen
Experimental: as §1
Preparation of damaged DNA for PARP-1. 500 μL of Herringsperm DNA (10 mg/ml) was added to 100 mL DNase buffer (400 mM Tris-HCl, 100 mM MgSO4, and 10 mM CaCl2, pH 8.0), along with 50 μL of DNase (1 unit/mL). This solution was first incubated at 37° C. for 1 minute and then heated at 90° C. for 20 minutes to inactivate the DNase. Damaged DNA was used without any further purification.
Kinetics of PARP-1. A 160 μL volume of PARP-1 (0.45 mg/mL) was premixed with 262.4 μL of the damaged herringsperm DNA and 2777.6 μl of PARP assay buffer. This mixture (known as activated PARP in assay buffer) was allowed to equilibrate on ice for 4 hours. The ADP-ribose-pNP colorimetric substrate was diluted from a 5000 μM stock in PARP assay buffer directly into the wells of a 96 well plate. […] The plate was then read on a SpectraMax plus UV/Vis plate reader (Molecular Devices), at 405 nm for 2 hours, reading once every minute with mixing between reads.
as §2

[6] = substrate: Nc1ncnc2c1ncn2[C@@H]1O[C@H](COP(=O)(O)OP(=O)(O)OC[C@H]2O[C@@H](Oc3ccc([N+](=O)[O-])cc3)C(O)C2O)C(O)C1O; assay: Continuous colorimetric PARP kinetic assay with ADP-ribose-pNP, VPARP active domain; format: biochemical; conditions: other: VPARP active domain; substrate ADP-ribose-pNP; 405 nm
Experimental: as §3, §4

[7] = tankyrase-1, versus literature values
[8] = tankyrase-1 active domain, substrate ADP-ribose-pNP, 405 nm

signal at 405 nm on incubation with bovine serum albumin (bovine serum albumin): no signal
Vmax fold lower with colorimetric substrate than with natural β-NAD+ substrate (PARP-1 [1]; PARP-1, versus literature values): approximately 100 fold
Vmax (PARP-1 [1]; PARP-1 activated with DNase digested DNA, substrate ADP-ribose-pNP, 405 nm): 0.0013 µmol/min/mg
Vmax (VPARP): 2.03e-06 µmol/min/mg
KM fold lower than literature value with β-NAD+ as substrate (tankyrase-1 [2]; [7]): approximately 18 fold
Vmax compared to literature values with β-NAD+ as substrate (tankyrase-1 [2]; [7]): significantly lower
Km (tankyrase-1 [2]; [8]): 82 µM
Vmax (tankyrase-1 [2]; [8]): 1.81e-05 µmol/min/mg
kcat (tankyrase-1 [2]; [8]): 1.88e-05 s⁻¹
Molecule: Nc1ncnc2c1ncn2[C@@H]1O[C@H](COP(=O)(O)OP(=O)(O)OC[C@H]2O[C@@H](Oc3ccc([N+](=O)[O-])cc3)C(O)C2O)C(O)C1O (stereo partly shown) [ADP-ribose-pNP]

Molecule: NC(=O)c1ccc[n+]([C@@H]2O[C@H](COP(=O)([O-])OP(=O)(O)OC[C@H]3O[C@@H](n4cnc5c(N)ncnc54)[C@H](O)[C@@H]3O)[C@@H](O)[C@H]2O)c1 [β-NAD^+, nicotinamide adenine dinucleotide]
Km (tankyrase-1 [3]): 1500 µM
kcat (tankyrase-1 [3]): 0.71 s⁻¹
Km (PARP-1 [4]): 59 to 278 µM
Vmax (PARP-1 [4]): 0.2 to 2.4 µmol/min/mg
kcat (PARP-1 [4]): 0.41 s⁻¹

Molecule: PARP-1 (Homo sapiens)
Km [5]: 151 µM
Vmax [5]: 0.0013 µmol/min/mg
kcat [5]: 0.025 s⁻¹

B1: VPARP (Homo sapiens) (protein)
chain: PPSLAKYRALRCKIEHVEQNTEEFLRVRKEVLQNHHSKSPVDVLQIFRVGRVNETTEFLSKLGNVRPLLHGSPVQNIVGILCRGLLLPKVVEDRGVQRTDVGNLGSGIYFSDSLSTSIKYSHPGETDGTRLLLICDVALGKCMDLHEKDFSLTEAPPGYDSVHGVSQTASVTTDFEDDEFVVYKTNQVKMKYIIKFSMPGDQIKD
notes: The plasmid with the catalytic domain of VPARP, pET28b-p193cat; made in house; host or cells: E. coli Rosetta
Km [6]: 46 µM
Vmax [6]: 2.03e-06 µmol/min/mg
